Tests used:
[1] = tested on: Pancreatic cancer cells; test: Anti-proliferative effects in pancreatic cancer cells (number of cells over time); type: cell-based, human; conditions: Pancreatic cancer cell; in vitro; b60 words: cancer cells (human pancreatic cancer, lung cancer and brain metastasis); read-out: IC50, inhibiting the proliferation of cancer cells
Protocol: Pancreatic cancer cells were treated with either LND or Mito-LND at varying concentrations and the number of cells was assayed over time.

[2] = tested on: mitochondrial complexes I and II; test: Inhibition of mitochondrial complexes I and II, stated jointly; type: cell-based, human
Source text: LON and Mito-LON inhibit mitochondrial complex I activity. Mito-LON inhibited cellular respiration (oxygen consumption rate, OCR) at >100-fold lower concentration than LON in intact lung cancer cells (FIG. 9). Both basal respiration and the response to mitochondrial stressors (oligomycin, dinitrophenol) were diminished by Mito-LON (not shown). To investigate the mechanism of mitochondrial inhibition, we measured the activity of mitochondrial complexes in H2030BrM3 cells (NSCLC cell line). The cell membrane was permeabilized, and OCR was measured upon addition of substrates and inhibitors of mitochondrial complexes I-IV (FIG. 9A). These studies established the optimal use of permeabilized cells for complex activity assays.^54 Next, cells were pretreated with LON and Mito-LON for 24 h and experiments performed as in FIG. 9A. […] We hypothesize that inhibition of mitochondrial complexes I and II is the predominant mechanism for antiproliferative effects of Mito-LON on lung cancer cells.

[3] = tested on: H2030BrM3 cells; test: Cell proliferation, IncuCyte Live-Cell Imaging Analyzer (cell confluence); type: cell-based; conditions: Homo sapiens, H2030-BrM3; H2030BrM3 cells, IncuCyte, FIG. 14; read-out: IC50, cell proliferation
Protocol: (§1) In contrast, Mito-LON (1.2-2.7 μM) targets mitochondrial complexes I and II (FIG. 9); its mitochondrial effects are supported by the compartment-selective oxidation of mitochondrial Prx3 (FIG. 13). The anti-proliferative effects of Mito-LON and LON were compared in H2030BrM3 cells.

[4] = tested on: PC9BrM3 and H2030BrM3 brain metastasis lung cancer cell lines; test: Boyden chamber (transwell) invasion assay; type: cell-based; conditions: Homo sapiens, H2030-BrM3; LON 100 μM alone; read-out: inhibitory effect on invasion when used alone
Source text: Mito-LON inhibits migration and invasion of brain metastatic human lung cancer cells. To investigate the potential of Mito-LON and LON for lung cancer metastasis, we first tested its effects in vitro via the Boyden chamber invasion assay using PC9BrM3 and H2030BrM3 brain metastasis lung cancer cell lines.

[5] = tested on: H2030BrM3 cells; test: Cellular ROS production, HPLC-based analysis of hydroethidine (HE) oxidation; type: cell-based, human; conditions: 200 μM, H2030BrM3 cells
Source text: Inhibition of mitochondrial respiration results in increased O2^⋅− and other oxidants.

[6] = tested on: HK2; test: HK2 protein levels and mRNA expression in lung cancer lines; type: cell-based, human
Protocol: as §1
Role of HK2 and additional possible signaling events that contribute to the effects of Mito-LON. […] This could contribute to their effects as many cancers have constitutive ERK activation which promotes survival and proliferation, and ERK1 can play an important role in regulating mitochondrial activity, apoptosis, proliferation and migration. […] AKT is another pro-survival factor that is constitutively activated (phosphorylated) in many cancers.

[7] = tested on: H2030BrM3 orthotopic lung adenocarcinoma in nude mice; test: Orthotopic lung tumor mouse model; type: in vivo; conditions: 7.5 μmol/kg oral gavage 5 times/wk for 3 wks, nude mice
Protocol: Inhibitory effects of Mito-LON in an orthotopic lung tumor mouse model. We conducted a pilot study using an orthotopic model of lung adenocarcinoma (H2030BrM3 cells) in nude mice. Cells (1×10^6 cells/50 μg of growth factor-reduced Matrigel in 50 μL of RPMI-1640) were injected into the lung. One week after injection, mice were treated with the same dose of LON or Mito-LON (7.5 μmol/kg), or vehicle (corn oil), by oral gavage 5 times/wk for 3 wks.

[8] = patients; cited from earlier work
[9] = at clinically relevant concentrations (<130 μM); cited from earlier work

O=C(O)c1nn(Cc2ccc(Cl)cc2Cl)c2ccccc12 [LON, 1-(2,4-dichlorobenzyl)-1H-indazole-3-carboxylic acid, reference compound]
IC50 [1]: 327 µM | concentration at which effects on complex I and II occur [2]: ca. 400 μM | IC50 ([2]; pretreatment of H2030BrM3 cells, read-out: IC50, inhibition of complex I and II): ~400 µM | IC50 [3]: 140 µM | inhibition at 100 µM [4]: < 10% | intracellular levels of 2-OH-E+ (superoxide-specific product of HE oxidation) [5]: increase | IC50 ([6]; FIG. 17, read-out: IC50, ability to decrease HK2 levels): 100 to 150 µM | HK2 levels ([6]; both lung cancer lines, within 3-6 h): decreased HK2 levels | decrease of HK2 mRNA expression ([6]; not shown): > 80% | efficacy in orthotopic lung tumor model [7]: not effective | typical peak plasma levels [8]: 17 to 127 µM | effectiveness by itself in vitro [9]: only moderately effective
